Results: patent publication US9982188B2, “Near-infrared emitters” (MISSOURI STATE UNIVERSITY, priority 2015, dated 2018)
Entries after “also recorded” stand apart in the source; their conditions may differ.

Legend:
[1] = related amide-cyanoximes, Ref [1, 2] / [1, 3]; cited from earlier work
[2] = potentiometric pH titration for pKa (ionization constant); format: physicochemical; conditions: isopropyl alcohol (ISA)/water mixture, aqueous pKa, 23° C., Yasuda-Shedlovsky extrapolation to zero ISA
Method: Ionization constants for the new cyanoxime compound 1 [H(DECO)] were determined using a Sirius Analytical Instruments automated titration station (Sussex, UK) equipped with a temperature-controlled bath. The titration was performed three times at 23° C. in an isopropyl alcohol (ISA) water mixture as described below. The weighed amount of compound 1 (3.08 mg) was placed into a titration vial. Sixteen milliliters of ISA water was delivered automatically to the vial. The pH of the solution was adjusted to 10 by adding 0.5 M KOH automatically. The titration with 0.5M HCl was performed automatically until a pH value of 2.5 was reached. To perform the second and third titrations, an additional volume of ISA and water (1 mL and 1 mL) was delivered automatically to the titration vial, respectively. The datasets for the three titrations were combined in the RefinementPro program to create a Multiset for pKa calculation. Also, these datasets were combined and extrapolated to a zero ISA concentration.
The aqueous pKa was calculated with a Yasuda-Shedlovsky extrapolation in the RefinementPro software.

[3] = solubility observations in water and organic solvents; format: physicochemical

| pKa [2] | Compound | pKa (pH titration) [1] | solubility in organic solvents ([3]; solvent named in the value) | solubility in water ([3]; water) |
| --- | --- | --- | --- | --- |
| – | N#C/C(=N\O)C(N)=O [H(ACO)] | 5.034 ± 0.002 | – | – |
| – | CN(C)C(=O)/C(C#N)=N/O [H(DCO)] | 5.52 ± 0.03 | – | – |
| 5.622 ± 0.005 | CCN(CC)C(=O)/C(C#N)=N/O [compound 1, 2-cyano-2-oximino-N,N′-diethylaminoacetamide] | – | soluble in most organic solvents except hydrocarbons | not well soluble in water; also recorded: insoluble in water |
